Source: US11331299B2, “Medicinal use of serrulatane diterpenes” (The University of Sydney, priority 2016, dated 2022)
Structures can show the parent of a compound that is named as a salt. Where two headings read alike, the source gives them in different places.

What was measured:
ATAD2B (h) bromodomain = target: T1, ATAD2B (h) bromodomain (Homo sapiens, UniProt Q9ULI0); assay: Epigenetic binding assay, Bromodomain; conditions: Table 4; read-out: Reference IC50
T1 construct: ATAD2B bromodomain; host or cells: E. coli
T1 sequence (Q9ULI0 951-1066 limits assumed): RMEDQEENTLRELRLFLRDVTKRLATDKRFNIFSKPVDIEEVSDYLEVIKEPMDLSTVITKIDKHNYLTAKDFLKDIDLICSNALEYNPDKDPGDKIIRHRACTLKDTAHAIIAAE

PB1(4) (h) bromodomain = target: T2, PB1(4) (h) bromodomain (Homo sapiens, UniProt Q86U86); assay: Epigenetic binding assay, Bromodomain; conditions: Table 4; read-out: Reference IC50
T2 construct: Bromodomain

NSD1 (h) = NSD1 (h) (Homo sapiens, UniProt Q96L73); assay: Epigenetic enzyme assay, Methyltransferases (MTs); type: biochemical
WHSC1(h) (NSD2(h)) = target: T3, WHSC1(h) (NSD2(h)) (Homo sapiens, UniProt O96028); assay: Epigenetic enzyme assay, Methyltransferases (MTs); type: biochemical; conditions: Table 10; read-out: Reference IC50
T3 sequence (O96028 1-1365): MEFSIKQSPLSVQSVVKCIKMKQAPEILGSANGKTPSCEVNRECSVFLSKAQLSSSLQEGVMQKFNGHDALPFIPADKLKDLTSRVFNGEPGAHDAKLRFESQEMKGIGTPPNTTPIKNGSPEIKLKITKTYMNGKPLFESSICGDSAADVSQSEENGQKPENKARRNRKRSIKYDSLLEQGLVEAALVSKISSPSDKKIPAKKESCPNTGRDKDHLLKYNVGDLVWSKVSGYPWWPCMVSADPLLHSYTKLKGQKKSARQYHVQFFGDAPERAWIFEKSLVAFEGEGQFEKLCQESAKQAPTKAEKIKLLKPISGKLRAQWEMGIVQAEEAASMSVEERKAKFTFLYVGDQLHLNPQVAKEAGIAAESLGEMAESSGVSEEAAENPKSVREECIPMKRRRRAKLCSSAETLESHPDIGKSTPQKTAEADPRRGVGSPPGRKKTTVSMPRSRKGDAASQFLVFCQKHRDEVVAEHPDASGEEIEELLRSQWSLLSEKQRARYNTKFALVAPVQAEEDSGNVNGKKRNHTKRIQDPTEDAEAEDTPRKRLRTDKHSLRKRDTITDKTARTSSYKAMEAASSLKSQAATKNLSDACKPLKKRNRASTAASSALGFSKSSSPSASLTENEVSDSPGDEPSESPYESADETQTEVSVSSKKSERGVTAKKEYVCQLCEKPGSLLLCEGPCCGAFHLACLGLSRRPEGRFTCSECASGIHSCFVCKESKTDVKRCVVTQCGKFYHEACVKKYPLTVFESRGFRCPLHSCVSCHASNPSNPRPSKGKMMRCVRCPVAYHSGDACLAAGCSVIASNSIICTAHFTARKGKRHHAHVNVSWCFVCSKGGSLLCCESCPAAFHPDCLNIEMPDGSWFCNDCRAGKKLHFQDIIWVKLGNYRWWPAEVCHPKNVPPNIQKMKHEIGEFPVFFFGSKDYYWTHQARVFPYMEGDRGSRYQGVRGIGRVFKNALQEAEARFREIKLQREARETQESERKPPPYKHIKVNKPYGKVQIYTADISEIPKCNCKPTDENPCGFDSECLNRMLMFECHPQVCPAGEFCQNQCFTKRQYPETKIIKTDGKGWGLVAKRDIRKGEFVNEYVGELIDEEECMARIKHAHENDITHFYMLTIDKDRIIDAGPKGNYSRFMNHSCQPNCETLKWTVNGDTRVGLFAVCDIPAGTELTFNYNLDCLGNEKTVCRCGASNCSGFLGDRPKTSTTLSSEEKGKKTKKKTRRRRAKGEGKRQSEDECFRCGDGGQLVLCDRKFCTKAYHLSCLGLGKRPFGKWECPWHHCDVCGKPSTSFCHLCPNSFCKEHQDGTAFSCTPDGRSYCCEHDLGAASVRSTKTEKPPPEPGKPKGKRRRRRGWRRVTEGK

[1] = target: T4, sirtuin 2 (h) (inhibitor effect) (Homo sapiens, UniProt Q8IXJ6); assay: Epigenetic enzyme assay, Sirtuins; type: biochemical; conditions: Table 10; read-out: Reference IC50
T4 sequence (Q8IXJ6 1-389): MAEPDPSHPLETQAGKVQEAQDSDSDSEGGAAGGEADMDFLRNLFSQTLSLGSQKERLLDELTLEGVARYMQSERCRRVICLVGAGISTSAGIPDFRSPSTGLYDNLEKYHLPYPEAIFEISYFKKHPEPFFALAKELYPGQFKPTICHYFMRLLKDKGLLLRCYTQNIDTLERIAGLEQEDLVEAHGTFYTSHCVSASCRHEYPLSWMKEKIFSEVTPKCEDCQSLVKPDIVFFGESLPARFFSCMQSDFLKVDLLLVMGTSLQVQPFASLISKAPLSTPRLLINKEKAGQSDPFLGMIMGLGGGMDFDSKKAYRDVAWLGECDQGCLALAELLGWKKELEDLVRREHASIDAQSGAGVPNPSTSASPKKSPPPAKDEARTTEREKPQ

NSD3/WHSC1L1 (h) = target: T5, NSD3/WHSC1L1 (h) (Homo sapiens, UniProt Q9BZ95); assay: Epigenetic enzyme assay, Methyltransferases (MTs); type: biochemical; conditions: Table 10; read-out: Reference IC50
T5 sequence (Q9BZ95 1-1437): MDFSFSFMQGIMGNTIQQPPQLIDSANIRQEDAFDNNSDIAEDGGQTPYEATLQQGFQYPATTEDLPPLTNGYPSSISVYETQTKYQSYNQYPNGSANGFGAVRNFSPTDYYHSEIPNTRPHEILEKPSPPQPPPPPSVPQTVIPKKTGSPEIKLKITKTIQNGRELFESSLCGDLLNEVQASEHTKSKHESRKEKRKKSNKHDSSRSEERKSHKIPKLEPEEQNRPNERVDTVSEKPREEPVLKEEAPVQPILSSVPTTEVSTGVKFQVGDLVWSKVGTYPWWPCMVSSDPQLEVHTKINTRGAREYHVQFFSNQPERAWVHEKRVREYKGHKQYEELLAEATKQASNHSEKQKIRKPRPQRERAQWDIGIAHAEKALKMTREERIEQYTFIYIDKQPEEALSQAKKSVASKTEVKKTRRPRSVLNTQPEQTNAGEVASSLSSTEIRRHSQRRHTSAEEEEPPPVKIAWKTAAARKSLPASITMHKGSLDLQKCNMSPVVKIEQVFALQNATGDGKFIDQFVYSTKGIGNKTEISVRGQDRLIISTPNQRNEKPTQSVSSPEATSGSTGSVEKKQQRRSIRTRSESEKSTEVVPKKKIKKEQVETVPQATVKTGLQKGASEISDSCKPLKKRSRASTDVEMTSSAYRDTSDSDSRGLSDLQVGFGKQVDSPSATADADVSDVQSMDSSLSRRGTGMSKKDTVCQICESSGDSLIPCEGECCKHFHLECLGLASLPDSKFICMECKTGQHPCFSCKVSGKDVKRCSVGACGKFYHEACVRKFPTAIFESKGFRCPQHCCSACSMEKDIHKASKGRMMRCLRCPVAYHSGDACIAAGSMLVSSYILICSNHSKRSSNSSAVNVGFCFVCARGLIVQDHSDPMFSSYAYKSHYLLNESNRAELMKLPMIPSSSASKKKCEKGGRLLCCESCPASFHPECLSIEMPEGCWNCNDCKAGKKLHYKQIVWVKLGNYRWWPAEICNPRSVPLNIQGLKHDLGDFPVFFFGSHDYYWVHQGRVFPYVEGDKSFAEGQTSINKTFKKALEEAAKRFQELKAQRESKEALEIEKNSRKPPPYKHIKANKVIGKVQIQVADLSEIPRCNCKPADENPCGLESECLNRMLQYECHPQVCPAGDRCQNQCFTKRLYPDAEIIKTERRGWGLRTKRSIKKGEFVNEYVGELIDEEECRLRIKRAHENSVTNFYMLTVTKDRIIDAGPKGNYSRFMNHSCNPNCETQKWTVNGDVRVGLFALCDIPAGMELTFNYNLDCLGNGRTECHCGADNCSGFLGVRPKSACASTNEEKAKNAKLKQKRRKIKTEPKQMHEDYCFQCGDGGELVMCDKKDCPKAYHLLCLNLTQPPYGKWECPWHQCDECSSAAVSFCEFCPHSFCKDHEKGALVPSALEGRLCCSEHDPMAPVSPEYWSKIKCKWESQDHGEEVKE

[2] = test system: 4 normal cell types, CCD 841 CoN, HMEC, HREC and Wi38; assay: OncoPanel normal cell proliferation assay (3-day), panel; type: cell-based; conditions: the other three cell lines (CCD 841 CoN, HREC, Wi38)
CCD 841 CoN = assay: OncoPanel normal cell proliferation assay (3-day); type: cell-based; conditions: Homo sapiens, 72 h, colon epithelial, 3-day incubation
HMEC = assay: OncoPanel normal cell proliferation assay (3-day); type: cell-based
HREC = assay: OncoPanel normal cell proliferation assay (3-day); type: cell-based; conditions: 72 h, renal mixed epithelial, 3-day incubation
Wi38 = assay: OncoPanel normal cell proliferation assay (3-day); type: cell-based; conditions: Homo sapiens, WI-38, 72 h, Wi38, lung fibroblast, 3-day incubation
SETD8 (h) = target: T6, SETD8 (h) (Homo sapiens, UniProt Q9NQR1); assay: Epigenetic enzyme assay, Methyltransferases (MTs); type: biochemical; conditions: Table 10; read-out: Reference IC50
T6 sequence (Q9NQR1 1-393): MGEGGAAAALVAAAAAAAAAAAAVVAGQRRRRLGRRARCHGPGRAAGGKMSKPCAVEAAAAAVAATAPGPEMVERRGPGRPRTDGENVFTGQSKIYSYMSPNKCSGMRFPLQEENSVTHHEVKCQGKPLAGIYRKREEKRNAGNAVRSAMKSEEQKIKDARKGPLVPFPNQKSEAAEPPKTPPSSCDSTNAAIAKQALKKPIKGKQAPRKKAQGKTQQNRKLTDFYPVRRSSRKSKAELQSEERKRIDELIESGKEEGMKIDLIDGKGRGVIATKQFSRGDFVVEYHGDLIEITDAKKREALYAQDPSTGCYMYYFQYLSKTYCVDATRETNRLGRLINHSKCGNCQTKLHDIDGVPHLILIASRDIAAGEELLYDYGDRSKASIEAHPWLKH

Lipid Peroxidase = assay: Lipid Peroxidase; type: biochemical, Dunkin Hartley Guinea pig; conditions: concentration-response 10 to 0.01 μM
USP 10 (h) = USP 10 (h) (Homo sapiens, UniProt Q14694); assay: Epigenetic enzyme assay, Ubiquitin modifying enzymes; type: biochemical; conditions: Table 10; read-out: Reference IC50
[3] = test system: IL-17A secretion from human PBMC stimulated with antiCD3/antiCD28-coated beads; conditions: assay description, reference compound, cited from earlier work
USP 16 (h) = USP 16 (h) (Homo sapiens, UniProt Q9Y5T5); assay: Epigenetic enzyme assay, Ubiquitin modifying enzymes; type: biochemical; conditions: Table 10; read-out: Reference IC50
USP 16 (h), sequence (Q9Y5T5 whole entry): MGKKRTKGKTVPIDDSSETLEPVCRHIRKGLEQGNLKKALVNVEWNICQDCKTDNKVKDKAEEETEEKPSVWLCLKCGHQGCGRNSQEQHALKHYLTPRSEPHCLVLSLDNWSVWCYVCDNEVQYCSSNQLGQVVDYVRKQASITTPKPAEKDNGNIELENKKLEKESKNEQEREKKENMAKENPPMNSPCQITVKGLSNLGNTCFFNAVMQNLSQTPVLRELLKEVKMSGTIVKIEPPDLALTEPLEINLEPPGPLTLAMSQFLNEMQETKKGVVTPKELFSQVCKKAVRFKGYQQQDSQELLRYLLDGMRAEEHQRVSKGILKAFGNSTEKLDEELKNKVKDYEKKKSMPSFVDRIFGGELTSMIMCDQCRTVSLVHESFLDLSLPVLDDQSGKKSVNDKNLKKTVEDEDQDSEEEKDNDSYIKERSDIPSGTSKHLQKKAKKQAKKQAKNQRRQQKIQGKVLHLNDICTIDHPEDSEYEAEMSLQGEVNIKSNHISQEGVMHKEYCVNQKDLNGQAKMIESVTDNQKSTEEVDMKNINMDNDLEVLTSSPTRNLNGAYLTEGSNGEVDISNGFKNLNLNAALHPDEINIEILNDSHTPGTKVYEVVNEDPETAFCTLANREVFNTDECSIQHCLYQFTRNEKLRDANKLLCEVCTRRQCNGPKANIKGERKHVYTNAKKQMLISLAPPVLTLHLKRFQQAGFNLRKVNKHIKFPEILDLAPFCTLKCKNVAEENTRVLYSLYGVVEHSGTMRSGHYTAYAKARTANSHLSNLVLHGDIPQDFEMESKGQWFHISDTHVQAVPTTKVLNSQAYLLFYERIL

NSD1 (h), sequence (Q96L73 whole entry): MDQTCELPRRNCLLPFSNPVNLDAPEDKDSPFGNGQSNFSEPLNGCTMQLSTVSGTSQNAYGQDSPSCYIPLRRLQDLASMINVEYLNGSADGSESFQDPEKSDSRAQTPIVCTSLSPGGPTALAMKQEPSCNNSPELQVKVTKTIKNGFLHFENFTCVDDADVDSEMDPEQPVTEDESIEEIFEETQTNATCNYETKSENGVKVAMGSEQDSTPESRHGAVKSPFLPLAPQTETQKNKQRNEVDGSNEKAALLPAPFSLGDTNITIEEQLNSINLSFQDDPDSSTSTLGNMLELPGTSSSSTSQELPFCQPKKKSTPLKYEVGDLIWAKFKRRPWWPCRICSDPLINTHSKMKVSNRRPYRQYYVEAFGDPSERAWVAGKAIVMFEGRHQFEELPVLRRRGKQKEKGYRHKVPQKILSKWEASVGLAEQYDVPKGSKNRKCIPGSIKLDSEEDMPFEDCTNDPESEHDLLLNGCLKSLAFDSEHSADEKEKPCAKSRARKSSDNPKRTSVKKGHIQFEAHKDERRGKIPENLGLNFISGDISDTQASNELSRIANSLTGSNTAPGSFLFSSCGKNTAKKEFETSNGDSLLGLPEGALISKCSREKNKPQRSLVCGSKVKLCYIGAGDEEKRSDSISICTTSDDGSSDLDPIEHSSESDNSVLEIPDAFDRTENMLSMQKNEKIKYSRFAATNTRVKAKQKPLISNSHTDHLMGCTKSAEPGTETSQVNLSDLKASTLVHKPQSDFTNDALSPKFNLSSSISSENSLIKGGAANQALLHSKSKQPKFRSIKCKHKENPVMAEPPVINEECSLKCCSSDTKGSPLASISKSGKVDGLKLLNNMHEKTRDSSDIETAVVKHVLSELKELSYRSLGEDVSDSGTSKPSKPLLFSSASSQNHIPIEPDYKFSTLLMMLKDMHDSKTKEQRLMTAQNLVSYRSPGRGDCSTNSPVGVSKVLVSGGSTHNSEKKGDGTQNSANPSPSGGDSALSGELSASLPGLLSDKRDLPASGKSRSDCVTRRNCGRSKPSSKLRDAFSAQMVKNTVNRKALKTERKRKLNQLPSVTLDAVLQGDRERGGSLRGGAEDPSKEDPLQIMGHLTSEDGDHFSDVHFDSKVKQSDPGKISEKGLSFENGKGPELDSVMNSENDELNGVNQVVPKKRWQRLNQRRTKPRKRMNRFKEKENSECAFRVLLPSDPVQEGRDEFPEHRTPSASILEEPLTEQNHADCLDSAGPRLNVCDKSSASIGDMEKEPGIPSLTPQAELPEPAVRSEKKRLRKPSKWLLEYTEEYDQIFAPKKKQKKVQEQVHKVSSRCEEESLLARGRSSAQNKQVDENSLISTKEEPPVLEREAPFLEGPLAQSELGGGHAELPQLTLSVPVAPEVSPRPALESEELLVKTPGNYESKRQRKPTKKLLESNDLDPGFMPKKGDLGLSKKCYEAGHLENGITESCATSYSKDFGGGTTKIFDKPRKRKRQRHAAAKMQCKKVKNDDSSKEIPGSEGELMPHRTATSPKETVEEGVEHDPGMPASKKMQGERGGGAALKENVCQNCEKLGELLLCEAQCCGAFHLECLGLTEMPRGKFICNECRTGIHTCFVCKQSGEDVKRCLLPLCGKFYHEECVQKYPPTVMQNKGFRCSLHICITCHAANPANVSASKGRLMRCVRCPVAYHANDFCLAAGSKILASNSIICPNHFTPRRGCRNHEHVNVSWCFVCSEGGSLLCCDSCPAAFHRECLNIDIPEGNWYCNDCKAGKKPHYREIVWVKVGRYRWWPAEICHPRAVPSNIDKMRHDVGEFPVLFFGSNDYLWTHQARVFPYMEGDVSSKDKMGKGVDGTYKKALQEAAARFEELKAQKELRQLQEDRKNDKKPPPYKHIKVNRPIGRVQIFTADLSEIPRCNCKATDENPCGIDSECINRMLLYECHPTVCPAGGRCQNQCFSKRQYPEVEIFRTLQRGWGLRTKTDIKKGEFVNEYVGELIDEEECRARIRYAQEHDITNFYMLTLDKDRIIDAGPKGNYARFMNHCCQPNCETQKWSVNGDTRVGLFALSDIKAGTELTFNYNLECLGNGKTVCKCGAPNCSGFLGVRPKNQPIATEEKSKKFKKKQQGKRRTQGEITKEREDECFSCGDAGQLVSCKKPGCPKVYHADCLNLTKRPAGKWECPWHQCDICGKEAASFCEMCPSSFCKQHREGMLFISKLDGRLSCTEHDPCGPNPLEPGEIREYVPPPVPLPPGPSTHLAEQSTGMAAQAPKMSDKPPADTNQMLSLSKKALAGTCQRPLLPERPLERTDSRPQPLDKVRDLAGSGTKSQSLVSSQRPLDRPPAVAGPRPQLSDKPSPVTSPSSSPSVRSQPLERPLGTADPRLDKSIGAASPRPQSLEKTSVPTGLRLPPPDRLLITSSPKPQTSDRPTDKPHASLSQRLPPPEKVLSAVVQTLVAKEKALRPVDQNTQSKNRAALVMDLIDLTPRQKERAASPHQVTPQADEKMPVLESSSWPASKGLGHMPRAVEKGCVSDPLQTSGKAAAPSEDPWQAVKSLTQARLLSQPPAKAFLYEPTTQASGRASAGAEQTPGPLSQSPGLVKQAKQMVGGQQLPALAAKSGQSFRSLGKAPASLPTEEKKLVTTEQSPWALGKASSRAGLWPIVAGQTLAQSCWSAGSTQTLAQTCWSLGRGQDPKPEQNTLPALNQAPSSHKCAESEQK
T2 sequence (Q86U86 518-625 limits assumed): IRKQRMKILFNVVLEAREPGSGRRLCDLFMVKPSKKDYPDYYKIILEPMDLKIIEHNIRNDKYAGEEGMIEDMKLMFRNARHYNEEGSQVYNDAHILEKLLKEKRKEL
USP 10 (h), sequence (Q14694 whole entry): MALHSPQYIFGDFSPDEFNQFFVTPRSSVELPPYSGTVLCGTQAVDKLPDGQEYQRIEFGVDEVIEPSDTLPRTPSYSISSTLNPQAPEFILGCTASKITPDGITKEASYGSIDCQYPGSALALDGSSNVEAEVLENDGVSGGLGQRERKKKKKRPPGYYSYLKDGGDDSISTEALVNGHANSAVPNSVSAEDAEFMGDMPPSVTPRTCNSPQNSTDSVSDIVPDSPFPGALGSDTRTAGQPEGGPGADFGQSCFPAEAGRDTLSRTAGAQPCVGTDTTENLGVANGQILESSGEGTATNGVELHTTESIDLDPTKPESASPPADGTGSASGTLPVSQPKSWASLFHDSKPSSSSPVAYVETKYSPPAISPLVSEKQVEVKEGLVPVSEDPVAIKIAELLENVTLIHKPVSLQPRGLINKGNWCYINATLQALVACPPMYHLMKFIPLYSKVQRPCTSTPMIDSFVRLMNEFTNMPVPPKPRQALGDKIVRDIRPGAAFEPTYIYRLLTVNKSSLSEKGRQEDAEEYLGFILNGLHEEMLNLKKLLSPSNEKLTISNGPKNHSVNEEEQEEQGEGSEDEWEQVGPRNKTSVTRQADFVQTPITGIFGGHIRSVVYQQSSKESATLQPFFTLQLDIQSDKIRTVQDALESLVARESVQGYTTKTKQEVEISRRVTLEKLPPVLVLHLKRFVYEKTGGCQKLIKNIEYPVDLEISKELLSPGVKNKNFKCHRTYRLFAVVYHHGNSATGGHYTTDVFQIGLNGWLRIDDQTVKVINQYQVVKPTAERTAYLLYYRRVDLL

In the case of `Cc1cc(/N=N/c2cc(S(=O)(=O)O)c(C)cc2C)c(N)cc1O` [Ischemin sodium salt, reference compound], the IC50 (ATAD2B (h) bromodomain) is reported as 76.6 µM and the IC50 (PB1(4) (h) bromodomain) is reported as 6.8 µM.
In the case of `CN1C(=O)[C@@]23C[C@]4([C@]56C[C@@]78SS[C@@](CO)(C(=O)N7[C@H]5Nc5ccccc56)N(C)C8=O)c5ccccc5N[C@@H]4N2C(=O)[C@]1(CO)SS3` [chaetocin, reference compound], the IC50 (NSD1 (h); Table 10, read-out: Reference IC50) is reported as 0.13 µM, the IC50 (NSD1 (h); Table 11, inhibition/concentration-response curve, read-out: IC50) is reported as 0.24 µM and the IC50 (WHSC1(h) (NSD2(h))) is reported as 0.48 µM.
Work on `Cc1ccc(C(=O)Nc2ccc(S(=O)(=O)O)c3cc(S(=O)(=O)O)cc(S(=O)(=O)O)c23)cc1NC(=O)c1cccc(NC(=O)Nc2cccc(C(=O)Nc3cc(C(=O)Nc4ccc(S(=O)(=O)O)c5cc(S(=O)(=O)O)cc(S(=O)(=O)O)c45)ccc3C)c2)c1` [suramin, reference compound] yielded an IC50 [1] of 21 µM and an IC50 (NSD3/WHSC1L1 (h)) of 1.5 µM.
In the case of `CC(=O)O[C@H]1C(=O)[C@@]2(C)[C@H]([C@H](OC(=O)c3ccccc3)[C@]3(O)C[C@H](OC(=O)[C@H](O)[C@@H](NC(=O)c4ccccc4)c4ccccc4)C(C)=C1C3(C)C)[C@]1(OC(C)=O)CO[C@@H]1C[C@@H]2O` [Paclitaxel, paclitaxel], the “toxicity towards normal cells” value [2] is reported as “high toxicity”, the EC50 (CCD 841 CoN; read-out: Cell Count EC50) is reported as 0.0119 µM and the GI50 (CCD 841 CoN; read-out: Cell Count GI50) is reported as 0.0221 µM. The “toxicity towards normal cells” value (HMEC) was “low toxicity”, the EC50 (HMEC; Homo sapiens, 72 h, HMEC, mammary epithelial, 3-day incubation, read-out: Cell Count EC50) was > 30 µM and the GI50 (HMEC; Homo sapiens, 72 h, HMEC, mammary epithelial, 3-day incubation, read-out: Cell Count GI50) was > 30 µM. For the same compound, the IC50 (HMEC; Homo sapiens, 72 h, HMEC, mammary epithelial, 3-day incubation, read-out: Cell Count IC50) was > 30 µM, the EC50 (HREC; read-out: Cell Count EC50) was 0.00172 µM and the GI50 (HREC; read-out: Cell Count GI50) was 0.0016 µM. For the same compound, the IC50 (HREC; read-out: Cell Count IC50) was 0.0484 µM, the EC50 (Wi38; read-out: Cell Count EC50) was 0.0039 µM and the GI50 (Wi38; read-out: Cell Count GI50) was 0.0036 µM. For the same compound, the IC50 (Wi38; read-out: Cell Count IC50) was 0.00941 µM.
Work on `O=C([O-])c1ccccc1-c1c2cc(Br)c(=O)cc-2oc2[c]([Hg+])c([O-])c(Br)cc12.[Na+].[Na+].[OH-]` [mercurochrome, reference compound] yielded an IC50 (SETD8 (h)) of 2.4 µM.
Work on `CCCOC(=O)c1cc(O)c(O)c(O)c1` [N-Propyl Gallate, reference compound] yielded an IC50 (Lipid Peroxidase) of 206 µM.
Compound `CN1C(=O)C=CC1=O` [N-Methylmaleimide, reference compound] has an IC50 (USP 10 (h)) of 1000 µM.
For `C=CC[C@@H]1/C=C(\C)C[C@H](C)C[C@H](OC)[C@H]2O[C@@](O)(C(=O)C(=O)N3CCCC[C@H]3C(=O)O[C@H](/C(C)=C/[C@@H]3CC[C@@H](O)[C@H](OC)C3)[C@H](C)[C@@H](O)CC1=O)[C@H](C)C[C@@H]2OC` [Tacrolimus], the “Emax (plateau of the fitted curve), IL-17A release” value [3] is given as “approximately 90%” and the EC50 ([3]; read-out: EC50, inhibition of IL-17A release) is given as ~0.00034 µM.
Work on `NC(=O)CI` [Iodoacetamide, reference compound] yielded an IC50 (USP 16 (h)) of 3.5 µM.
